Measurements from patent publication US10689362B2, “Quinoxaline compounds as type III receptor tyrosine kinase inhibitors” (Development Center for Biotechnology, priority 2016, dated 2020).

Columns and labels:
[1] = test system: Kasumi-1 human acute myeloid leukemia cell with c-KIT N822K activating mutation; assay: Kasumi-1 cell proliferation assay (CellTiter-96); format: cell-based; details: Cytotoxicity, Kasumi-1 cells, 72 hours
Procedure: (§1) Inhibition of cell growth by compounds was measured using CellTiter™-96 assay. The cytotoxicity of compounds was evaluated in CSF-1-dependent M-NFS-60 mouse myeloid leukemia cell, FLT3 signal addicted MV4-11 human acute myeloid leukemia cell with FLT3-ITD mutation, c-KIT signal addicted Kasumi-1 human acute myeloid leukemia cell with c-KIT N822K activating mutation, and THP-1 human acute monocytic leukemia cell harboring NRAS G12D mutation.
(§2) The compounds disclosed herein were tested in Kasumi cell proliferation assay to determine their cellular potency against c-KIT kinase. Kasumi human acute myeloid leukemia cells harbor ligand-independent N822K c-KIT activating mutation, thus the cell proliferation relied on c-KIT signal. Inhibition of c-KIT kinase activity will cause reduced growth and/or cell death. […] Cells were allowed to expand until reaching saturation at which point they were subcultured or harvested for assay use.
(§3) M-NFS-60, Kasumi-1, MV4-11 and THP-1 cells were seeded into 96-well plates at 2000, 64000, 6500, and 5000 cells/well, respectively, and incubated at 37° C., 5% CO2 overnight. Then, these seeded cells were treated with increasing concentrations of the test compounds and incubated for another 72 hours. At the end of the incubation, CellTiter96® AQueous One Solution Reagent (Promega) was added and incubated for 4 hours. Cell viability was determined by measuring absorbance at 490 nm using EMax® microplate reader (Molecular Devices).

[2] = test system: MV4-11 human acute myeloid leukemia cell with FLT3-ITD mutation; assay: MV4-11 cell proliferation assay (CellTiter-96); format: cell-based; details: Cytotoxicity, MV4-11 cells, 72 hours
Procedure: as §1
as §2, with “MV4-11” for “Kasumi”, “FLT3” for “c-KIT”, “FLT3-ITD” for “N822K c-KIT”, “which render its” for “thus the cell”, “FLT3-ITD dependent.” for “relied on c-KIT signal.”
as §3

[3] = test system: CSF-1-dependent M-NFS-60 mouse myeloid leukemia cell; assay: M-NFS-60 cell proliferation assay (CellTiter-96); format: cell-based; details: Cytotoxicity, M-NFS-60 cells, 72 hours
Procedure: as §1
The compounds disclosed herein were tested in M-NFS-60 cell proliferation assay to determine their cellular potency against CSF-1R. […] Inhibition of CSF-1R kinase activity will cause reduced growth and/or cell death. […] Cells were allowed to expand until reaching saturation at which point they were subcultured or harvested for assay use.
as §3

[4] = test system: THP-1 human acute monocytic leukemia cell harboring NRAS G12D mutation; assay: THP-1 cell proliferation assay (counter screen, CellTiter-96); format: cell-based; details: Cytotoxicity, THP-1 cells (counter screen), 72 hours
Procedure: as §1
THP-1 human acute monocytic leukemia cells harbor NRAS G12D mutation, which renders cell proliferate independently of class III RTKs signal. […] Cells were allowed to expand until reaching saturation at which point they were subcultured or harvested for assay use.
as §3

[5] = biological target: FLT3 kinase (Homo sapiens (Human), UniProt P36888); assay: FLT3 kinase assay (radiometric); format: biochemical; details: bound
Procedure: (§4) Inhibition of FLT3 kinase activity by a test compound disclosed herein was estimated by radiometric assay. Standard assay conditions were 5 ng of recombinant FLT3 (Thermo Fisher) with 2 μg of substrate Poly-(Glu 4:Tyr 1) (sigma) in the assay buffer in kinase reaction buffer (10 mM MOPS pH 7.0, 0.21 mM EDTA, 0.5% glycerol, 0.001% Brij-35, 0.01 2-mercaptoehtanol, 1 mg/ml BSA, MgCl2 10 mM, 10 μM ATP, 0.1 μCi per well [^33P]-ATP, in the presence of test compound (diluted in final concentration of 4% DMSO) or DMSO control, with a final volume of 25 μl for 60 minutes at 30° C. The reaction was stopped by adding 5 μl of 3% phosphoric acid solution. Total reaction solution was then harvested onto a filter plate (UniFilter-96 GF/B, PerkinElmer), and washed 20 times for 5 min with dH2O. 30 μl of MicroScint™-20 Cocktail (PerkinElmer) was added to dried plate. The plate was sealed and counted using a TopCount scintillation detector (PerkinElmer). […] The IC50 values of quinoxaline compounds of this invention against FLT3 kinase were determined using the GraphPad Prism 5 software.
(§5) The IC50 values for selected quinoxaline compounds of this invention against CSF-1R, c-KIT, FLT3, and PDGFRβ are summarized in Table 3.

[6] = biological target: c-KIT kinase (Homo sapiens (Human), UniProt P10721); assay: c-KIT kinase assay (radiometric); format: biochemical
Procedure: as §4, with “of c-KIT” for “of FLT3”, “were 20” for “were 5”, “recombinant c-Kit (SignalChem)” for “recombinant FLT3 (Thermo Fisher)”, “BSA,” for “BSA, MgCl2”, “10 mM MgCl2, 10 mM MnCl2,” for “10 mM,”, “against c-KIT” for “against FLT3”
as §5

[7] = biological target: PDGFRβ kinase (Homo sapiens (Human), UniProt P09619); assay: PDGFRβ kinase assay (radiometric); format: biochemical; details: bound
Procedure: Inhibition of PDGFRβ kinase activity by a test compound disclosed herein was estimated by radiometric assay. Standard assay conditions were 10 ng of recombinant PDGFRβ (SignalChem) with 2 μg of substrate Poly-(Glu 4:Tyr 1) (sigma) in the assay buffer in kinase reaction buffer (10 mM MOPS pH 7.0, 0.21 mM EDTA, 0.5% glycerol, 0.001% Brij-35, 0.01 2-mercaptoehtanol, 1 mg/ml BSA, 10 mM MgCl2, 10 mM MnCl2, 10 μM ATP, 0.1 μCi per well [^33P]-ATP), in the presence of test compound (diluted in final concentration of 4% DMSO) or DMSO control, with a final volume of 25 μl for 60 minutes at 30° C. The reaction was stopped by adding 5 μl of 3% phosphoric acid solution. Total reaction solution was then harvested onto a filter plate (UniFilter-96 GF/B, PerkinElmer), and washed 20 times for 5 min with dH2O. 30 μl of MicroScint™-20 Cocktail (PerkinElmer) was added to dried plate. The plate was sealed and counted using a TopCount scintillation detector (PerkinElmer). […] The IC50 values of quinoxaline compounds of this invention against PDGFRβ kinase were determined using the GraphPad Prism 5 software.
as §5

Chain of FLT3 kinase (P36888 27-993): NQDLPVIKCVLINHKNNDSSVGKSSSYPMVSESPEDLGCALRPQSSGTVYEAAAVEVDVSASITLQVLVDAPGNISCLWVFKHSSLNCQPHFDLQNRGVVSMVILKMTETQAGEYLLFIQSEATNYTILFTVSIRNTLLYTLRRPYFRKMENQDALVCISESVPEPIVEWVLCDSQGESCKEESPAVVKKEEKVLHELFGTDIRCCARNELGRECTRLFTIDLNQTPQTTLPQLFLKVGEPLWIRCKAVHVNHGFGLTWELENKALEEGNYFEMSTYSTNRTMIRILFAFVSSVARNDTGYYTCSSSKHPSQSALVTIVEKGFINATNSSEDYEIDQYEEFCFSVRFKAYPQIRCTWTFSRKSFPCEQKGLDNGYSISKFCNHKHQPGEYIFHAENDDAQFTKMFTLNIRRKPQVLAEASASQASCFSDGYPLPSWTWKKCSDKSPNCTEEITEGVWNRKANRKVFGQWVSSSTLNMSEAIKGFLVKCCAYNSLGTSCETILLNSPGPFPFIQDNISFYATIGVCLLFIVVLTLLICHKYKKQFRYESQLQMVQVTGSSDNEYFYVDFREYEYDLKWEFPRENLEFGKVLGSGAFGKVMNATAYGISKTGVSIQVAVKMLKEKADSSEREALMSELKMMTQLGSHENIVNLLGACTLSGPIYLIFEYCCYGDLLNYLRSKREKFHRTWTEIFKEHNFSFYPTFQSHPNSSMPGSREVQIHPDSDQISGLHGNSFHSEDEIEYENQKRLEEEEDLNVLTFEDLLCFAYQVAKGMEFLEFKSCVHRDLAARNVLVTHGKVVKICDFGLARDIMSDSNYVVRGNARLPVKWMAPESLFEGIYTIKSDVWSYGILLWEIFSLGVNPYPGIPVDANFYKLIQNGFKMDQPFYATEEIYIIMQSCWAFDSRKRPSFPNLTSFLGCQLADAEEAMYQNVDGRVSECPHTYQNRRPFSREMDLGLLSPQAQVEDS
Chain of c-KIT kinase (P10721 26-976): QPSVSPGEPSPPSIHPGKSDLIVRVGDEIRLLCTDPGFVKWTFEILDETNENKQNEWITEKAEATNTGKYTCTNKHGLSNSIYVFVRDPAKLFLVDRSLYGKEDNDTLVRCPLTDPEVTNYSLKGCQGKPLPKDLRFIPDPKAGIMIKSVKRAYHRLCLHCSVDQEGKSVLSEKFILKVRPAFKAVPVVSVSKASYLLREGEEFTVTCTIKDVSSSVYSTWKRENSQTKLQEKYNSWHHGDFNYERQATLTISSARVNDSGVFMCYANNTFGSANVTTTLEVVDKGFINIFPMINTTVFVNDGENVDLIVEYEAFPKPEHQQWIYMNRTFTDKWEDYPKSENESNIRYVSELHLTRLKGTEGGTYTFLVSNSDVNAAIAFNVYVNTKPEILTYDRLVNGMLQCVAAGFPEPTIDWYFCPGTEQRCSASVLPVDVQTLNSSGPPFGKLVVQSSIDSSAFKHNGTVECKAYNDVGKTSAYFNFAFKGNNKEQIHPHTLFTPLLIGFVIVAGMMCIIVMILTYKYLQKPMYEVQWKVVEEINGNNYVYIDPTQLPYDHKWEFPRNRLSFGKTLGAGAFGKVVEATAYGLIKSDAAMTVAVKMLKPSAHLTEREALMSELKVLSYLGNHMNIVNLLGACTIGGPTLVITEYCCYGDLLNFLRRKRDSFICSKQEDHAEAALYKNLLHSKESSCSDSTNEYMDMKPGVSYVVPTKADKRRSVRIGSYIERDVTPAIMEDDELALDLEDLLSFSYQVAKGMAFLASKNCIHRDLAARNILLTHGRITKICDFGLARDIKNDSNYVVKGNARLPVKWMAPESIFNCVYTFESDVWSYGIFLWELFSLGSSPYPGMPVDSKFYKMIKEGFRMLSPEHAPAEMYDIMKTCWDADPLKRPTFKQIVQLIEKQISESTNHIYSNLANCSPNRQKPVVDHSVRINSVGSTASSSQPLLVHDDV
Chain of PDGFRβ kinase (P09619 33-1106): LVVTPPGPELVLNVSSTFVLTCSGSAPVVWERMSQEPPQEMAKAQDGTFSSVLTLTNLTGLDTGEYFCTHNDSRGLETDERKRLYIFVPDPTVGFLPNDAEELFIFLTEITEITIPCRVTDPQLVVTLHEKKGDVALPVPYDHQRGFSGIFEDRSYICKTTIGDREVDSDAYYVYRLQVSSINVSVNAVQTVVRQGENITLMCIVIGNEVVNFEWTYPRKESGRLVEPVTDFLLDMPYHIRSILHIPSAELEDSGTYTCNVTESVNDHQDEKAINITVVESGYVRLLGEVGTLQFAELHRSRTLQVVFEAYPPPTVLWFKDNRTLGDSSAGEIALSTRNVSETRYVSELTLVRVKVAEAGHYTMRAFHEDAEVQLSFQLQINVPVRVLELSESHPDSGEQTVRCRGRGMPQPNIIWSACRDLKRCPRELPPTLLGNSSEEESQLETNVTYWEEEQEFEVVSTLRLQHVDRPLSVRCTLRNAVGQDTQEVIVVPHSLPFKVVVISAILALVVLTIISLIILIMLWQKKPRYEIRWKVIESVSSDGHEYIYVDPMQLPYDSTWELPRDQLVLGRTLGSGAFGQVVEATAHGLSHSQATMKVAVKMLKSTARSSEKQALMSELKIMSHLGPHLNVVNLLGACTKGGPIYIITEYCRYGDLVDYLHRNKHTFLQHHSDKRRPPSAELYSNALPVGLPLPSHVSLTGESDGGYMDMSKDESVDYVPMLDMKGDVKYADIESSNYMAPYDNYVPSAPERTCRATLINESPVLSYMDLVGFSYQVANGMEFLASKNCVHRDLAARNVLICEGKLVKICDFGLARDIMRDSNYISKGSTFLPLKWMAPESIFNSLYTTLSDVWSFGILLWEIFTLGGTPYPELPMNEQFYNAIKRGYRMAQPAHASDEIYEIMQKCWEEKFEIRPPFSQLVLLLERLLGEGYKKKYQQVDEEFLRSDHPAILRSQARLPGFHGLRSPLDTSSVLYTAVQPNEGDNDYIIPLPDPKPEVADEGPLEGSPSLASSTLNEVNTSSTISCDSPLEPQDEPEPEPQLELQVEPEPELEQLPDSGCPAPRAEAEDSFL

## COc1cc(Nc2ccc3ncc(N4CCOCC4)nc3c2C#N)ccc1OCC1CCCC1 [Example 44, 6-((4-(cyclopentylmethoxy)-3-methoxyphenyl)amino)-3-morpholinoquinoxaline-5-carbonitrile]
[1]
  IC50: 1 to 10 µM
[2]
  IC50: 1 to 10 µM
[3]
  IC50: 1 to 10 µM
[4]
  IC50: > 10 µM

## COc1cnc2ccc(Nc3ccc(OC)c(OC)c3)c(C#N)c2n1 [Example 11, 6-((3,4-dimethoxyphenyl)amino)-3-methoxyquinoxaline-5-carbonitrile]
[1]
  IC50: 1 to 10 µM
[2]
  IC50: 1 to 10 µM
[3]
  IC50: > 10 µM
[4]
  IC50: > 10 µM

## COc1cc(Nc2ccc3ncc(N4CCOCC4)nc3c2C#N)ccc1OCc1ccc(C)nc1 [Example 54, 6-((3-methoxy-4-((6-methylpyridin-3-yl)methoxy)phenyl)amino)-3-morpholinoquinoxaline-5-carbonitrile]
[5]
  IC50: > 1 µM
[6]; class symbol
  IC50: < 0.1 µM
[7]
  IC50: > 1 µM

## CCOc1cc(Nc2ccc3ncc(N4CCOCC4)nc3c2C#N)ccc1OCc1ccncc1 [Example 47, 6-((3-ethoxy-4-(pyridin-4-ylmethoxy)phenyl)amino)-3-morpholinoquinoxaline-5-carbonitrile]
[1]
  IC50: > 10 µM
[2]
  IC50: 1 to 10 µM
[3]
  IC50: 1 to 10 µM
[4]
  IC50: > 10 µM

## COc1cc(Nc2ccc3ncc(N4CCOCC4)nc3c2C#N)ccc1OCC1CCN(C)CC1 [Example 42, 6-((3-methoxy-4-((1-methylpiperidin-4-yl)methoxy)phenyl)amino)-3-morpholinoquinoxaline-5-carbonitrile]
[1]
  IC50: 1 to 10 µM
[2]
  IC50: 1 to 10 µM
[3]
  IC50: 1 to 10 µM
[4]
  IC50: > 10 µM

## COc1ccc(CNc2ccc(Nc3ccc4ncc(OC)nc4c3C#N)cc2OC)cc1 [Example 14, 3-methoxy-6-((3-methoxy-4-((4-methoxybenzyl)amino)phenyl)amino)quinoxaline-5-carbonitrile]
[1]
  IC50: > 10 µM
[2]
  IC50: 1 to 10 µM
[3]
  IC50: > 10 µM
[4]
  IC50: > 10 µM

## COc1ccc(COc2ccc(Oc3ccc4ncc(OC)nc4c3C#N)cc2OC)cc1 [Example 26, 3-methoxy-6-(3-methoxy-4-((4-methoxybenzyl)oxy)phenoxy)quinoxaline-5-carbonitrile]
[5]
  IC50: > 1 µM
[6]; bound
  IC50: > 1 µM
[7]
  IC50: > 1 µM

## COc1cnc2ccc(Nc3ccc(OCc4cccnc4)nc3)c(C#N)c2n1 [Example 6, 3-methoxy-6-((6-(pyridin-3-ylmethoxy)pyridin-3-yl)amino)quinoxaline-5-carbonitrile]
[1]
  IC50: > 10 µM
[2]
  IC50: 1 to 10 µM
[3]
  IC50: > 10 µM
[4]
  IC50: > 10 µM

## COc1cc(Nc2ccc3ncc(N4CCOCC4)nc3c2C#N)ccc1OCc1cnn(C2CC2)c1 [Example 134, 6-((4-((1-cyclopropyl-1H-pyrazol-4-yl)methoxy)-3-methoxy-phenyl)amino)-3-morpholinoquinoxaline-5-carbonitrile]
[5]
  IC50: > 1 µM
[6]; class symbol
  IC50: < 0.1 µM
[7]
  IC50: > 1 µM

## CCOc1cc(Oc2ccc3ncc(OC)nc3c2C#N)ccc1OCc1ccc(OC)cc1 [Example 30, 6-(3-ethoxy-4-((4-methoxybenzyl)oxy)phenoxy)-3-methoxyquinoxaline-5-carbonitrile]
[5]
  IC50: > 1 µM
[6]; bound
  IC50: > 1 µM
[7]
  IC50: > 1 µM

## COc1cc(Nc2ccc3ncc(N4CCOCC4)nc3c2C#N)ccc1OCC1(C)COC1 [Example 41, 6-((3-methoxy-4-((3-methyloxetan-3-yl)methoxy)phenyl)amino)-3-morpholinoquinoxaline-5-carbonitrile]
[1]
  IC50: 1 to 10 µM
[2]
  IC50: 1 to 10 µM
[3]
  IC50: > 10 µM
[4]
  IC50: > 10 µM

## COc1cnc2ccc(Nc3ccc(OCc4cccnc4)c(OC)c3)c(C#N)c2n1 [Example 8, 3-methoxy-6-((3-methoxy-4-(pyridin-3-ylmethoxy)phenyl)amino)quinoxaline-5-carbonitrile]
[1]
  IC50: > 10 µM
[2]
  IC50: 1 to 10 µM
[3]
  IC50: > 10 µM
[4]
  IC50: > 10 µM

## COc1ccc(COc2ccc(Oc3ccc4ncc(OC)nc4c3C#N)cc2OC)cc1 [Example 10, 3-methoxy-6-(3-methoxy-4-((4-methoxpenzyl)oxy)phenoxy)quinoxaline-5-carbonitrile]
[7]
  IC50: > 1 µM

## COc1cnc2ccc(Nc3ccc(NCc4ccc(C(F)(F)F)nc4)nc3)c(C#N)c2n1 [Example 1, 3-methoxy-6-((6-(((6-(trifluoromethyl)pyridin-3-yl)methyl)amino)pyridin-3-yl)amino)quinoxaline-5-carbonitrile]
[1]
  IC50: 1 to 10 µM
[2]
  IC50: 1 to 10 µM
[3]
  IC50: > 10 µM
[4]
  IC50: > 10 µM

## COc1cc(Nc2ccc3ncc(N4CCOCC4)nc3c2C#N)ccc1OCc1cnc(C)nc1 [Example 128, 6-((3-methoxy-4-((2-methylpyrimidin-5-yl)methoxy)phenyl)amino)-3-morpholinoquinoxaline-5-carbonitrile]
[5]
  IC50: > 1 µM
[6]; class symbol
  IC50: 0.3 to 1 µM
[7]
  IC50: > 1 µM

## COc1cc(Nc2ccc3ncc(N4CCOCC4)nc3c2C#N)ccc1OCc1cccnc1 [Example 43, 6-((3-methoxy-4-(pyridin-3-ylmethoxy)phenyl)amino)-3-morpholinoquinoxaline-5-carbonitrile]
[5]
  IC50: > 1 µM
[6]; class symbol
  IC50: < 0.1 µM
[7]
  IC50: > 1 µM
